In patent publication US20140303092A1 (CHIMERIX, INC., priority 2011, published 2014):

Assay: Study HDP-CDV-201: safety and tolerability (adverse events, laboratory abnormalities, discontinuations)
Type: in vivo, human (adult allogeneic HSCT recipients)
Method: Clinical Studies of HDP-CDV were performed and described in detail in the following Examples. For example, HDP-CDV-201 is a placebo-controlled, dose-escalating trial in HSCT CMV (R+) recipients, evaluating the ability of HDP-CDV to prevent or control CMV infection was carried out. Five cohorts were established in which participants or subjects received either placebo or the HDP-CDV orally, in doses ranging from 40 mg weekly (QW) to 200 mg twice weekly (BIW). Subjects who were post-HSCT were enrolled at the time of engraftment and randomized to HDP-CDV or placebo (3 to 1 ratio) and received blinded therapy until approximately 100 day post-transplantation. HDP-CDV doses were 40 mg QW, 100 mg QW, 200 mg QW, 200 mg BIW and 100 mg BIW. Escalation to the next dose was decided by the data monitoring committee after review of the safety data from the previous Cohort. Subjects who developed CMV disease or CMV infection requiring pre-emptive therapy with local standard of care were discontinued from blinded therapy and followed for 4 weeks. Subjects who completed treatment with blinded therapy were followed for 8 weeks post-therapy.
Data from Study HDP-CDV-201 also provided characterization of the safety and tolerability profile of HDP-CDV when administered for the prevention or control of CMV infection in high risk (R^+) post-HSCT adult subjects.
The Safety population (SAFETY) included all randomized subjects who took at least one dose of study treatment. This population was used to summarize safety outcomes based on the treatment actually received, in cases where a subject was treated contrary to the randomization schedule.
The safety and tolerability profile of HDP-CDV, including subject demographics and Baseline characteristics; the AE profile; and laboratory abnormalities of interest were analyzed in the cohorts followed in this investigation.
Subjects completing the treatment period received a full course of study medication; those completing the entire study attended visits through 8 weeks of follow up. Subjects who discontinued treatment may have done so for protocol specified reasons (e.g. development of clinically significant CMV infection requiring preemptive treatment with excluded anti-CMV medications) or for other reasons (e.g., withdrawal, adverse events, loss to follow-up). The disposition of subjects in Study HDP-CDV-201 during the double-blind, placebo-controlled treatment period (through Week 11) is listed by dosing Cohort in TABLE 23.
Adverse events were examined by severity to ensure that all safety signals were identified in this study population. Because of the frequency of events in HSCT recipients, particular attention was given to evaluation of Grade 3 […], 4 (severe), and 5 (fatal) adverse events.
Only those preferred terms for which at least one Grade 3 or higher event was experienced in any treatment group are listed. Cytomegalovirus-related AEs are excluded from this analysis.
HDP-CDV is a lipid conjugate of CDV. Because CDV is known to have adverse effects on renal function and bone marrow, decreased GFR and persistent neutropenia were identified as AEs of special interest. Key renal and hematological (TABLE 30) laboratory parameters were measured and listed below by Study HDP-CDV-201 treatment groups. TABLE 30 includes abnormal levels of serum creatinine, neutrophils, platelets, WBCs, and hemoglobin and includes data at Screening and during the treatment period.
A common metric for unit based dosing of medications is by weight (mg/kg). When the distribution of weights was examined for all subjects participating in the study, the median was 78 kg and the lower 25th percentile weight was approximately 65 kg, which translates to a cut-off of ˜3 mg/kg for a 200 mg total weekly dose. Based upon this approach, a cut-off of 3 mg/kg was used to assess the frequency of diarrhea and associated GI AEs reported for the subjects in Cohorts 3 or 4a (TABLE 40).

CCCCCCCCCCCCCCCCOCCCOP(=O)(O)COC(CO)Cn1ccc(N)nc1=O (stereo not drawn) [HDP-CDV]
Abnormal ALT >3-5x ULN, Screening, subjects (Cohort 3, >3.0 mg/kg/wk): 0 | Abnormal ALT >5-10x ULN, Any Time Between Week 2 and Week 10, subjects (Cohort 3, >3.0 mg/kg/wk): 0 | Abnormal ALT >5-10x ULN, Screening, subjects (Cohort 3, >3.0 mg/kg/wk): 0 | Abnormal ALT >10-20x ULN, Any Time Between Week 2 and Week 10, subjects (Cohort 3, >3.0 mg/kg/wk): 0 | Abnormal ALT >10-20x ULN, Screening, subjects (Cohort 3, >3.0 mg/kg/wk): 0 | Abnormal ALT >20x ULN, Any Time Between Week 2 and Week 10, subjects (Cohort 3, >3.0 mg/kg/wk): 0 | Abnormal ALT >20x ULN, Screening, subjects (Cohort 3, >3.0 mg/kg/wk): 0 | Abnormal ALT >3-5x ULN, Any Time Between Week 2 and Week 10, subjects (Cohort 3, ≦3.0 mg/kg/wk): 3 (12.5%) | Abnormal ALT >3-5x ULN, Screening, subjects (Cohort 3, ≦3.0 mg/kg/wk): 0 | Abnormal ALT >5-10x ULN, Any Time Between Week 2 and Week 10, subjects (Cohort 3, ≦3.0 mg/kg/wk): 5 (20.8%) | Abnormal ALT >5-10x ULN, Screening, subjects (Cohort 3, ≦3.0 mg/kg/wk): 0 | Abnormal ALT >10-20x ULN, Any Time Between Week 2 and Week 10, subjects (Cohort 3, ≦3.0 mg/kg/wk): 0 | Abnormal ALT >10-20x ULN, Screening, subjects (Cohort 3, ≦3.0 mg/kg/wk): 0 | Abnormal ALT >20x ULN, Any Time Between Week 2 and Week 10, subjects (Cohort 3, ≦3.0 mg/kg/wk): 1 (4.2%) | Abnormal ALT >20x ULN, Screening, subjects (Cohort 3, ≦3.0 mg/kg/wk): 0 | Grade of hepatobiliary AE hepatomegaly, subject 4019 (Cohort 4): 1 | Grade of hepatobiliary AE hyperbilirubenemia, subject 4001 (Cohort 4): 2 | Grade of hepatobiliary AE hyperbilirubinemia, subject 4014 (Cohort 4): 4 | Grade of hepatobiliary AE hyperbilirubinemia, subject 4041 (Cohort 4): 1 | Grade of hepatobiliary AE jaundice, subject 4002 (Cohort 4): 1 | Grade of hepatobiliary AE worsening hyperbilirubinemia, subject 4004 (Cohort 4): 1 | Outcome of hepatobiliary AE hepatomegaly, subject 4019 (Cohort 4): recovered/resolved | Outcome of hepatobiliary AE hyperbilirubenemia, subject 4001 (Cohort 4): not recovered/not | Outcome of hepatobiliary AE hyperbilirubinemia, subject 4014 (Cohort 4): not recovered/not | Outcome of hepatobiliary AE hyperbilirubinemia, subject 4041 (Cohort 4): recovered/resolved | Outcome of hepatobiliary AE jaundice, subject 4002 (Cohort 4): not recovered/not | Outcome of hepatobiliary AE worsening hyperbilirubinemia, subject 4004 (Cohort 4): recovered/resolved | Relationship of hepatobiliary AE hepatomegaly, subject 4019 (Cohort 4): not related | Relationship of hepatobiliary AE hyperbilirubenemia, subject 4001 (Cohort 4): not related | Relationship of hepatobiliary AE hyperbilirubinemia, subject 4014 (Cohort 4): not related | Relationship of hepatobiliary AE hyperbilirubinemia, subject 4041 (Cohort 4): not related | Relationship of hepatobiliary AE jaundice, subject 4002 (Cohort 4): not related | Relationship of hepatobiliary AE worsening hyperbilirubinemia, subject 4004 (Cohort 4): not related | subjects discontinued due to neutropenia (Cohort 4): 0 subject(s) | ALT (Screening) >3 × ULN-5 × ULN, subjects (Cohort 4, 200 mg BIW): 2 (6.7%) | ALT (Screening) >5 × ULN-10 × ULN, subjects (Cohort 4, 200 mg BIW): 2 (6.7%) | ALT (Screening) >10 × ULN-20 × ULN, subjects (Cohort 4, 200 mg BIW): 0 | ALT (Screening) >20 × ULN, subjects (Cohort 4, 200 mg BIW): 0 | ALT (any time during therapy) >3 × ULN-5 × ULN, subjects (Cohort 4, 200 mg BIW): 4 (13.8%) | ALT (any time during therapy) >5 × ULN-10 × ULN, subjects (Cohort 4, 200 mg BIW): 6 (20.7%) | ALT (any time during therapy) >10 × ULN-20 × ULN, subjects (Cohort 4, 200 mg BIW): 2 (6.9%) | ALT (any time during therapy) >20 × ULN, subjects (Cohort 4, 200 mg BIW): 0 | AST (Screening) >3 × ULN-5 × ULN, subjects (Cohort 4, 200 mg BIW): 1 (3.3%) | AST (Screening) >5 × ULN-10 × ULN, subjects (Cohort 4, 200 mg BIW): 0 | AST (Screening) >10 × ULN-20 × ULN, subjects (Cohort 4, 200 mg BIW): 0 | AST (Screening) >20 × ULN, subjects (Cohort 4, 200 mg BIW): 0 | AST (any time during therapy) >3 × ULN-5 × ULN, subjects (Cohort 4, 200 mg BIW): 6 (20.7%) | AST (any time during therapy) >5 × ULN-10 × ULN, subjects (Cohort 4, 200 mg BIW): 0 | AST (any time during therapy) >10 × ULN-20 × ULN, subjects (Cohort 4, 200 mg BIW): 0 | AST (any time during therapy) >20 × ULN, subjects (Cohort 4, 200 mg BIW): 0 | Alkaline Phosphatase (Screening) >2.5-5.0 × ULN, subjects (Cohort 4, 200 mg BIW): 0 | Alkaline Phosphatase (Screening) >5.0-20.0 × ULN, subjects (Cohort 4, 200 mg BIW): 0 | Alkaline Phosphatase (Screening) >20.0 × ULN, subjects (Cohort 4, 200 mg BIW): 0 | Alkaline Phosphatase (Screening) >ULN-[…] ULN, subjects (Cohort 4, 200 mg BIW): 7 (23.3%) | Alkaline Phosphatase (any time during therapy) >2.5-5.0 × ULN, subjects (Cohort 4, 200 mg BIW): 0 | Alkaline Phosphatase (any time during therapy) >5.0-20.0 × ULN, subjects (Cohort 4, 200 mg BIW): 0 | Alkaline Phosphatase (any time during therapy) >20.0 × ULN, subjects (Cohort 4, 200 mg BIW): 0 | Alkaline Phosphatase (any time during therapy) >ULN-[…] ULN, subjects (Cohort 4, 200 mg BIW): 11 (37.9%) | GI AE Leading to Study Drug Discontinuation: Abdominal pain, subjects (Cohort 4, 200 mg BIW): 1 (3.3%) | GI AE Leading to Study Drug Discontinuation: Diarrhoea, subjects (Cohort 4, 200 mg BIW): 7 (23.3%) | GI AE Leading to Study Drug Discontinuation: Dyspepsia, subjects (Cohort 4, 200 mg BIW): 0 | GI AE Leading to Study Drug Discontinuation: Nausea, subjects (Cohort 4, 200 mg BIW): 1 (3.3%) | GI AE Leading to Study Drug Discontinuation: Vomiting, subjects (Cohort 4, 200 mg BIW): 0 | GI AEs Leading to Study Drug Discontinuation: Total subjects discontinued (Cohort 4, 200 mg BIW): 9 (30.0%) | Gastrointestinal AE Abdominal discomfort, subjects (Cohort 4, 200 mg BIW): 0 | Gastrointestinal AE Abdominal distention, subjects (Cohort 4, 200 mg BIW): 1 (3.3%) | Gastrointestinal AE Abdominal pain upper, subjects (Cohort 4, 200 mg BIW): 3 (10.0%) | Gastrointestinal AE Abdominal pain, subjects (Cohort 4, 200 mg BIW): 11 (36.7%) | Gastrointestinal AE Constipation, subjects (Cohort 4, 200 mg BIW): 3 (10.0%) | Gastrointestinal AE Diarrhoea, subjects (Cohort 4, 200 mg BIW): 21 (70.0%) | Gastrointestinal AE Diverticulum intestinal haemorragic, subjects (Cohort 4, 200 mg BIW): 0 | Gastrointestinal AE Dyspepsia, subjects (Cohort 4, 200 mg BIW): 1 (3.3%) | Gastrointestinal AE Dysphagia, subjects (Cohort 4, 200 mg BIW): 0 | Gastrointestinal AE Epigastric discomfort, subjects (Cohort 4, 200 mg BIW): 0 | Gastrointestinal AE Flatulence, subjects (Cohort 4, 200 mg BIW): 3 (10.0%) | Gastrointestinal AE GERD, subjects (Cohort 4, 200 mg BIW): 2 (6.7%) | Gastrointestinal AE Gastritis, subjects (Cohort 4, 200 mg BIW): 0 | Gastrointestinal AE Haematochezia, subjects (Cohort 4, 200 mg BIW): 0 | Gastrointestinal AE Haemorroids, subjects (Cohort 4, 200 mg BIW): 2 (6.7%) | Gastrointestinal AE Large intestinal ulcer, subjects (Cohort 4, 200 mg BIW): 0 | Gastrointestinal AE Nausea, subjects (Cohort 4, 200 mg BIW): 11 (36.7%) | Gastrointestinal AE Odynophagia, subjects (Cohort 4, 200 mg BIW): 1 (3.3%) | Gastrointestinal AE Oesophagitis, subjects (Cohort 4, 200 mg BIW): 0 | Gastrointestinal AE Retching, subjects (Cohort 4, 200 mg BIW): 0 | Gastrointestinal AE Vomiting, subjects (Cohort 4, 200 mg BIW): 8 (26.7%) | Hepatobiliary clinical AE Cholelithiasis, subjects (Cohort 4, 200 mg BIW): 0 | Hepatobiliary clinical AE Hepatomegaly, subjects (Cohort 4, 200 mg BIW): 1 (3.3%) | Hepatobiliary clinical AE Hyperbilirubinaemia, subjects (Cohort 4, 200 mg BIW): 5 (16.7%) | Hepatobiliary clinical AE Jaundice, subjects (Cohort 4, 200 mg BIW): 1 (3.3%) | Hepatobiliary clinical AE Liver injury, subjects (Cohort 4, 200 mg BIW): 1 (3.3%) | Intensity of Gastrointestinal AEs, Grade 1, subjects (Cohort 4, 200 mg BIW): 3 (10.0%) | Intensity of Gastrointestinal AEs, Grade 2, subjects (Cohort 4, 200 mg BIW): 13 (43.3%) | Intensity of Gastrointestinal AEs, Grade 3, subjects (Cohort 4, 200 mg BIW): 10 (33.3%) | Intensity of Gastrointestinal AEs, Grade 4, subjects (Cohort 4, 200 mg BIW): 0 | Intensity of Gastrointestinal AEs, Grade 5, subjects (Cohort 4, 200 mg BIW): 1 (3.3%) | Serum ALT level, Median fold increase from Baseline at Follow-up Week 1 (Cohort 4, 200 mg BIW): 1.87 fold | Serum ALT level, Median fold increase from Baseline at Follow-up Week 4 (Cohort 4, 200 mg BIW): 1.34 fold | Serum ALT level, Peak Median fold increase from Baseline (Cohort 4, 200 mg BIW): 3.55 fold | Subjects completed study (Cohort 4, 200 mg BIW): 6 (20.0%) n (%) | Total Bilirubin (Screening) >1-[…] ULN, subjects (Cohort 4, 200 mg BIW): 1 (3.3%) | Total Bilirubin (Screening) >1.5-3 × ULN, subjects (Cohort 4, 200 mg BIW): 0 | Total Bilirubin (Screening) >3-10 × ULN, subjects (Cohort 4, 200 mg BIW): 0 | Total Bilirubin (Screening) >10 × ULN, subjects (Cohort 4, 200 mg BIW): 0 | Total Bilirubin (any time during therapy) >1-[…] ULN, subjects (Cohort 4, 200 mg BIW): 3 (10.3%) | Total Bilirubin (any time during therapy) >1.5-3 × ULN, subjects (Cohort 4, 200 mg BIW): 1 (3.4%) | Total Bilirubin (any time during therapy) >3-10 × ULN, subjects (Cohort 4, 200 mg BIW): 1 (3.4%) | Total Bilirubin (any time during therapy) >10 × ULN, subjects (Cohort 4, 200 mg BIW): 0 | incidence of diarrhea (Cohort 4, 200 mg BIW): 70% | Abdominal pain leading to study drug withdrawal (Cohort 4, 200 mg BIW, N = 30): 1 (3.3%) | All AEs leading to withdrawal (Cohort 4, 200 mg BIW, N = 30): 18 (60.0%) | Diarrhoea leading to study drug withdrawal (Cohort 4, 200 mg BIW, N = 30): 7 (23.3%)
